Data from US5840684A, “Glycopeptide antibiotic derivatives” (Eli Lilly and Company, priority 1995, dated 1998).
Converted amounts (≈) assume the structure as drawn.

What was measured:
Entercoccus faecium 2041 = test: broth micro-dilution MIC; type: cell-based; conditions: Entercoccus faecium 2041
Description: (§1) The formula I compounds have in vitro and in vivo activity against Gram-positive pathogenic bacteria. The MIC's were determined using a standard broth micro-dilution assay.

[1] = tested on: Haemophilus influenzae RD; test: broth micro-dilution MIC; type: cell-based; conditions: Haemophilus influenzae RD
Description: as §1

[2] = tested on: Streptococcus pneumoniae P1; test: broth micro-dilution MIC; type: cell-based
Description: as §1

[3] = tested on: Staphylococcus epidermidis 270; test: broth micro-dilution MIC; type: cell-based
Description: as §1

Entercoccus faecium 180 = test: broth micro-dilution MIC; type: cell-based; conditions: Entercoccus faecium 180
Description: as §1

[4] = tested on: Staphylococcus haemolyticus 415; test: broth micro-dilution MIC; type: cell-based
Description: as §1

[5] = tested on: Staphylococcus haemolyticus 105; test: broth micro-dilution MIC; type: cell-based
Description: as §1

[6] = tested on: Enterococcus gallinarum 245; test: broth micro-dilution MIC; type: cell-based; conditions: Enterococcus gallinarum 245
Description: as §1

Escherichia coli EC14 = test: broth micro-dilution MIC; type: cell-based
Description: as §1

[7] = tested on: vancomycin-susceptible enterococci; test: broth micro-dilution, mean geometric MIC; type: cell-based, Enterococcus faecium and Enterococcus faecalis; conditions: enterococci, 24-hour incubation
[8] = tested on: Staphylococcus aureus SA1199B; type: cell-based
Description: (§2) The MIC's were determined using a standard broth micro-dilution assay.

[9] = tested on: Staphylococcus aureus S13E; type: cell-based
Description: as §2

[10] = tested on: vancomycin-resistant enterococci; test: broth micro-dilution, mean geometric MIC; type: cell-based, Enterococcus faecium and Enterococcus faecalis; conditions: enterococci, 24-hour incubation
[11] = tested on: Staphylococcus aureus 447; test: broth micro-dilution MIC; type: cell-based
Description: as §2

[12] = tested on: Staphylococcus aureus 491; test: broth micro-dilution MIC; type: cell-based
Description: as §2

[13] = tested on: Staphylococcus aureus 446; test: broth micro-dilution MIC; type: cell-based
Description: as §2

[14] = tested on: Staphylococcus aureus X778; test: broth micro-dilution MIC; type: cell-based
Description: as §2

[15] = tested on: Entercoccus faecium 180-1; test: broth micro-dilution MIC; type: cell-based
Description: as §2

[16] = tested on: Staphylococcus aureus SA1199; test: broth micro-dilution MIC; type: cell-based
Description: as §2

[17] = tested on: Staphylococcus aureus SA1199A; test: broth micro-dilution MIC; type: cell-based
Description: as §2

[18] = tested on: Streptococcus pyogenes C203; test: broth micro-dilution MIC; type: cell-based
Description: as §2

[19] = tested on: Staphylococcus aureus X400; test: broth micro-dilution MIC; type: cell-based
Description: as §2

[20] = tested on: Staphylococcus aureus 489; test: broth micro-dilution MIC; type: cell-based
Description: as §2

Entercoccus faecium 276 = test: broth micro-dilution MIC; type: cell-based
Description: as §2

SMILES | MIC (Entercoccus faecium 2041) [µg/mL] | MIC [1] [µg/mL] | MIC [2] [µg/mL] | MIC [3] [µg/mL] | MIC (Entercoccus faecium 180) [µg/mL] | MIC [4] [µg/mL] | MIC [5] [µg/mL] | MIC [6] [µg/mL] | MIC (Escherichia coli EC14) [µg/mL] | mean geometric MIC, Vancomycin Sensitive Strains [7] [µg/mL] | MIC [8] [µg/mL] | MIC [9] [µg/mL] | mean geometric MIC, Vancomycin Resistant Strains [10] [µg/mL] | MIC [11] [µg/mL] | MIC [12] [µg/mL] | MIC [13] [µg/mL] | MIC [14] [µg/mL] | MIC [15] [µg/mL] | MIC [16] [µg/mL] | MIC [17] [µg/mL] | further results
CC(C)CC(C(=O)NC1C(=O)NC(CC(N)=O)C(=O)NC2C(=O)NC3C(=O)NC(C(=O)NC(C(=O)O)c4cc(O)cc(O)c4-c4cc3ccc4O)C(OC3CC(C)(N)C(O)C(C)O3)c3ccc(c(Cl)c3)Oc3cc2cc(c3OC2OC(CO)C(O)C(O)C2OC2CC(C)(NCc3cccc4c3OCO4)C(O)C(C)O2)Oc2ccc(cc2Cl)C1O)N(C)Cc1cccc2c1OCO2 (stereo not drawn) [Compound 269] | 0.125 (≈ 0.0672 µM) | > 64 | ≤ 0.06 | 8 (≈ 4.3 µM) | 4 (≈ 2.15 µM) | 4 (≈ 2.15 µM) | 8 (≈ 4.3 µM) | 4 (≈ 2.15 µM) | > 64 | 1.1 | 0.5 (≈ 0.269 µM) | 1 (≈ 0.537 µM) | 38 | 4 (≈ 2.15 µM) | 1 (≈ 0.537 µM) | 2 (≈ 1.07 µM) | 0.25 (≈ 0.134 µM) | 0.125 (≈ 0.0672 µM) | 0.25 (≈ 0.134 µM) | ≤ 0.06 | MIC [18]: ≤ 0.06 µg/mL; MIC [19]: 0.5 µg/mL (≈ 0.269 µM); MIC [20]: 0.25 µg/mL (≈ 0.134 µM); MIC (Entercoccus faecium 276): 0.125 µg/mL (≈ 0.0672 µM)
CC(C)CC(C(=O)NC1C(=O)NC(CC(N)=O)C(=O)NC2C(=O)NC3C(=O)NC(C(=O)NC(C(=O)O)c4cc(O)cc(O)c4-c4cc3ccc4O)C(OC3CC(C)(N)C(O)C(C)O3)c3ccc(c(Cl)c3)Oc3cc2cc(c3OC2OC(CO)C(O)C(O)C2OC2CC(C)(NCc3ccc(Cc4ccccc4)cc3)C(O)C(C)O2)Oc2ccc(cc2Cl)C1O)N(C)Cc1ccc(Cc2ccccc2)cc1 (stereo not drawn) [Compound 270] | 0.5 (≈ 0.256 µM) | > 64 | ≤ 0.06 | 1 (≈ 0.512 µM) | 0.25 (≈ 0.128 µM) | 2 (≈ 1.02 µM) | 4 (≈ 2.05 µM) | 2 (≈ 1.02 µM) | > 64 | 0.66 | 2 (≈ 1.02 µM) | 2 (≈ 1.02 µM) | 2.8 | 0.5 (≈ 0.256 µM) | 0.25 (≈ 0.128 µM) | 1 (≈ 0.512 µM) | 0.5 (≈ 0.256 µM) | ≤ 0.06 | 1 (≈ 0.512 µM) | ≤ 0.06 | MIC [18]: ≤ 0.06 µg/mL; MIC [19]: 1 µg/mL (≈ 0.512 µM); MIC [20]: 0.25 µg/mL (≈ 0.128 µM); MIC (Entercoccus faecium 276): 1 µg/mL (≈ 0.512 µM)
CC(C)CC(C(=O)NC1C(=O)NC(CC(N)=O)C(=O)NC2C(=O)NC3C(=O)NC(C(=O)NC(C(=O)O)c4cc(O)cc(O)c4-c4cc3ccc4O)C(OC3CC(C)(N)C(O)C(C)O3)c3ccc(c(Cl)c3)Oc3cc2cc(c3OC2OC(CO)C(O)C(O)C2OC2CC(C)(NCc3cccc(Oc4ccccc4)c3)C(O)C(C)O2)Oc2ccc(cc2Cl)C1O)N(C)Cc1cccc(Oc2ccccc2)c1 (stereo not drawn) [Compound 271] | 2 (≈ 1.02 µM) | > 64 | ≤ 0.06 | 1 (≈ 0.511 µM) | 2 (≈ 1.02 µM) | 2 (≈ 1.02 µM) | 2 (≈ 1.02 µM) | 2 (≈ 1.02 µM) | > 64 | 0.33 | 1 (≈ 0.511 µM) | 1 (≈ 0.511 µM) | 5.7 | 2 (≈ 1.02 µM) | 0.5 (≈ 0.256 µM) | 1 (≈ 0.511 µM) | 0.5 (≈ 0.256 µM) | 0.125 (≈ 0.0639 µM) | 2 (≈ 1.02 µM) | 0.5 (≈ 0.256 µM) | MIC [18]: ≤ 0.06 µg/mL; MIC [19]: 2 µg/mL (≈ 1.02 µM); MIC [20]: 1 µg/mL (≈ 0.511 µM); MIC (Entercoccus faecium 276): 1 µg/mL (≈ 0.511 µM)
CNC(CC(C)C)C(=O)NC1C(=O)NC(CC(N)=O)C(=O)NC2C(=O)NC3C(=O)NC(C(=O)NC(C(=O)O)c4cc(O)cc(O)c4-c4cc3ccc4O)C(OC3CC(C)(NCc4ccc(C(F)(F)F)cc4)C(O)C(C)O3)c3ccc(c(Cl)c3)Oc3cc2cc(c3OC2OC(CO)C(O)C(O)C2OC2CC(C)(NCc3ccc(C(F)(F)F)cc3)C(O)C(C)O2)Oc2ccc(cc2Cl)C1O (stereo not drawn) [Compound 272] | 0.125 (≈ 0.0655 µM) | > 64 | ≤ 0.06 | ≤ 0.06 | 0.5 (≈ 0.262 µM) | 0.5 (≈ 0.262 µM) | 0.125 (≈ 0.0655 µM) | 0.5 (≈ 0.262 µM) | > 64 | 0.072 | ≤ 0.06 | 0.125 (≈ 0.0655 µM) | 4.75 | 0.25 (≈ 0.131 µM) | 0.25 (≈ 0.131 µM) | 0.25 (≈ 0.131 µM) | 0.125 (≈ 0.0655 µM) | ≤ 0.06 | 0.25 (≈ 0.131 µM) | ≤ 0.06 | MIC [18]: ≤ 0.06 µg/mL; MIC [19]: 0.125 µg/mL (≈ 0.0655 µM); MIC [20]: 0.125 µg/mL (≈ 0.0655 µM); MIC (Entercoccus faecium 276): 0.125 µg/mL (≈ 0.0655 µM)
CC(C)CC(C(=O)NC1C(=O)NC(CC(N)=O)C(=O)NC2C(=O)NC3C(=O)NC(C(=O)NC(C(=O)O)c4cc(O)cc(O)c4-c4cc3ccc4O)C(OC3CC(C)(N)C(O)C(C)O3)c3ccc(c(Cl)c3)Oc3cc2cc(c3OC2OC(CO)C(O)C(O)C2OC2CC(C)(NCc3ccncc3)C(O)C(C)O2)Oc2ccc(cc2Cl)C1O)N(C)Cc1ccncc1 (stereo not drawn) [Compound 274] | 1 (≈ 0.563 µM) | > 64 | ≤ 0.06 | 16 (≈ 9.02 µM) | > 64 | > 64 | > 64 | > 64 | > 64 | 9.2 | 2 (≈ 1.13 µM) | 4 (≈ 2.25 µM) | > 128 | 16 (≈ 9.02 µM) | 4 (≈ 2.25 µM) | 8 (≈ 4.51 µM) | 4 (≈ 2.25 µM) | 0.5 (≈ 0.282 µM) | 2 (≈ 1.13 µM) | 1 (≈ 0.563 µM) | MIC [18]: 0.125 µg/mL (≈ 0.0704 µM); MIC [19]: 8 µg/mL (≈ 4.51 µM); MIC [20]: 2 µg/mL (≈ 1.13 µM); MIC (Entercoccus faecium 276): 1 µg/mL (≈ 0.563 µM)
CNC(CC(C)C)C(=O)NC1C(=O)NC(CC(N)=O)C(=O)NC2C(=O)NC3C(=O)NC(C(=O)NC(C(=O)O)c4cc(O)cc(O)c4-c4cc3ccc4O)C(OC3CC(C)(NCc4cnc5ccccc5c4)C(O)C(C)O3)c3ccc(c(Cl)c3)Oc3cc2cc(c3OC2OC(CO)C(O)C(O)C2OC2CC(C)(NCc3cnc4ccccc4c3)C(O)C(C)O2)Oc2ccc(cc2Cl)C1O (stereo not drawn) [Compound 275] | ≤ 0.06 | > 64 | ≤ 0.06 | 1 (≈ 0.533 µM) | 1 (≈ 0.533 µM) | 4 (≈ 2.13 µM) | 1 (≈ 0.533 µM) | 4 (≈ 2.13 µM) | > 64 | 0.33 | 0.125 (≈ 0.0667 µM) | 0.125 (≈ 0.0667 µM) | 16 | 1 (≈ 0.533 µM) | 1 (≈ 0.533 µM) | 0.25 (≈ 0.133 µM) | ≤ 0.06 | ≤ 0.06 | ≤ 0.06 | ≤ 0.06 | MIC [18]: ≤ 0.06 µg/mL; MIC [19]: 0.25 µg/mL (≈ 0.133 µM); MIC [20]: ≤ 0.06 µg/mL; MIC (Entercoccus faecium 276): ≤ 0.06 µg/mL
